{"source": "patent US10336732B2", "about": "“1-heterocyclyl isochromanyl compounds and analogs for treating CNS disorders” (Sunovion Pharmaceuticals Inc., priority 2015, dated 2019)", "data": [{"test_system": "mice", "test": "Neuropharmacological assay (SmartCube), behavioral signature of compound-treated mice", "type": "in vivo", "conditions": "i.p. 15 min before behavioral test, most efficacious dose(s) of 3 doses", "outline": "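Mice received compound i.p. in NMP/PEG/propylene glycol vehicle at 3 doses, 15 min before testing. Video-captured behavior was algorithmically compared with a reference-drug signature database.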", "values": [{"smiles": "Fc1ccc2c(c1)CCCO[C@H]2[C@@H]1CCCN1", "note": "[Compound I-111, (S)-2-((R)-7-fluoro-1,3,4,5-tetrahydrobenzo[c]oxepin-1-yl)pyrrolidine]", "AD: ADHD (probability that behavioral signature matches class)": "+ (LOQ ≤ + <5%)", "AG: analgesic (probability that behavioral signature matches class)": "++ (5% ≤ ++ <25%)", "AX: anxiolytic (probability that behavioral signature matches class)": "++ (5% ≤ ++ <25%)", "CE: cognitive enhancer (probability that behavioral signature matches class)": "++ (5% ≤ ++ <25%)", "DP: anti-depressant (probability that behavioral signature matches class)": "++ (5% ≤ ++ <25%)", "HA: hallucinogen (probability that behavioral signature matches class)": "+ (LOQ ≤ + <5%)", "MS: mood stabilizer (probability that behavioral signature matches class)": "+ (LOQ ≤ + <5%)", "PS: anti-psychotic (probability that behavioral signature matches class)": "++++ (50% ≤ ++++)", "SD: sedative hypnotic (probability that behavioral signature matches class)": "++ (5% ≤ ++ <25%)", "UN: uncharacterized CNS activity (probability that behavioral signature matches class)": "+++ (25% ≤ +++ <50%)", "XG: anxiogenic (probability that behavioral signature matches class)": "+ (LOQ ≤ + <5%)"}, {"smiles": "Fc1ccc2c(c1)CCCO[C@@H]2[C@H]1CCCN1", "note": "[Compound I-112, (R)-2-((S)-7-fluoro-1,3,4,5-tetrahydrobenzo[c]oxepin-1-yl)pyrrolidine]", "AD: ADHD (probability that behavioral signature matches class)": "+ (LOQ ≤ + <5%)", "AG: analgesic (probability that behavioral signature matches class)": "+ (LOQ ≤ + <5%)", "AX: anxiolytic (probability that behavioral signature matches class)": "++ (5% ≤ ++ <25%)", "CE: cognitive enhancer (probability that behavioral signature matches class)": "++ (5% ≤ ++ <25%)", "DP: anti-depressant (probability that behavioral signature matches class)": "++ (5% ≤ ++ <25%)", "HA: hallucinogen (probability that behavioral signature matches class)": "+ (LOQ ≤ + <5%)", "MS: mood stabilizer (probability that behavioral signature matches class)": "+ (LOQ ≤ + <5%)", "PS: anti-psychotic (probability that behavioral signature matches class)": "+++ (25% ≤ +++ <50%)", "SD: sedative hypnotic (probability that behavioral signature matches class)": "+ (LOQ ≤ + <5%)", "UN: uncharacterized CNS activity (probability that behavioral signature matches class)": "+ (LOQ ≤ + <5%)", "XG: anxiogenic (probability that behavioral signature matches class)": "+ (LOQ ≤ + <5%)"}, {"smiles": "Fc1ccc2c(c1)CCCO[C@H]2[C@H]1CCCN1", "note": "[Compound I-113, (R)-2-((R)-7-fluoro-1,3,4,5-tetrahydrobenzo[c]oxepin-1-yl)pyrrolidine]", "AD: ADHD (probability that behavioral signature matches class)": "+ (LOQ ≤ + <5%)", "AG: analgesic (probability that behavioral signature matches class)": "++ (5% ≤ ++ <25%)", "AX: anxiolytic (probability that behavioral signature matches class)": "++ (5% ≤ ++ <25%)", "CE: cognitive enhancer (probability that behavioral signature matches class)": "++ (5% ≤ ++ <25%)", "DP: anti-depressant (probability that behavioral signature matches class)": "+++ (25% ≤ +++ <50%)", "HA: hallucinogen (probability that behavioral signature matches class)": "+ (LOQ ≤ + <5%)", "MS: mood stabilizer (probability that behavioral signature matches class)": "+ (LOQ ≤ + <5%)", "PS: anti-psychotic (probability that behavioral signature matches class)": "++ (5% ≤ ++ <25%)", "SD: sedative hypnotic (probability that behavioral signature matches class)": "++ (5% ≤ ++ <25%)", "UN: uncharacterized CNS activity (probability that behavioral signature matches class)": "+ (LOQ ≤ + <5%)", "XG: anxiogenic (probability that behavioral signature matches class)": "+ (LOQ ≤ + <5%)"}, {"smiles": "c1ccc2c(c1)CCO[C@@H]2C1CNC1", "note": "[Compound I-114, (R)-3-(isochroman-1-yl)azetidine]", "AD: ADHD (probability that behavioral signature matches class)": "+ (LOQ ≤ + <5%)", "AG: analgesic (probability that behavioral signature matches class)": "++ (5% ≤ ++ <25%)", "AX: anxiolytic (probability that behavioral signature matches class)": "++ (5% ≤ ++ <25%)", "CE: cognitive enhancer (probability that behavioral signature matches class)": "++ (5% ≤ ++ <25%)", "DP: anti-depressant (probability that behavioral signature matches class)": "+++ (25% ≤ +++ <50%)", "HA: hallucinogen (probability that behavioral signature matches class)": "+ (LOQ ≤ + <5%)", "MS: mood stabilizer (probability that behavioral signature matches class)": "+ (LOQ ≤ + <5%)", "PS: anti-psychotic (probability that behavioral signature matches class)": "++ (5% ≤ ++ <25%)", "SD: sedative hypnotic (probability that behavioral signature matches class)": "++ (5% ≤ ++ <25%)", "UN: uncharacterized CNS activity (probability that behavioral signature matches class)": "+ (LOQ ≤ + <5%)", "XG: anxiogenic (probability that behavioral signature matches class)": "+ (LOQ ≤ + <5%)"}, {"smiles": "c1ccc2c(c1)CCO[C@H]2C1CNC1", "note": "[Compound I-115, (S)-3-(isochroman-1-yl)azetidine]", "AD: ADHD (probability that behavioral signature matches class)": "+ (LOQ ≤ + <5%)", "AG: analgesic (probability that behavioral signature matches class)": "++ (5% ≤ ++ <25%)", "AX: anxiolytic (probability that behavioral signature matches class)": "++ (5% ≤ ++ <25%)", "CE: cognitive enhancer (probability that behavioral signature matches class)": "++ (5% ≤ ++ <25%)", "DP: anti-depressant (probability that behavioral signature matches class)": "++ (5% ≤ ++ <25%)", "HA: hallucinogen (probability that behavioral signature matches class)": "+ (LOQ ≤ + <5%)", "MS: mood stabilizer (probability that behavioral signature matches class)": "+ (LOQ ≤ + <5%)", "PS: anti-psychotic (probability that behavioral signature matches class)": "++ (5% ≤ ++ <25%)", "SD: sedative hypnotic (probability that behavioral signature matches class)": "++ (5% ≤ ++ <25%)", "UN: uncharacterized CNS activity (probability that behavioral signature matches class)": "+++ (25% ≤ +++ <50%)", "XG: anxiogenic (probability that behavioral signature matches class)": "+ (LOQ ≤ + <5%)"}, {"smiles": "Cc1ccc2c(c1)[C@@H](C1CNC1)OCC2", "note": "[Compound I-116, (R)-3-(7-methylisochroman-1-yl)azetidine]", "AD: ADHD (probability that behavioral signature matches class)": "+ (LOQ ≤ + <5%)", "AG: analgesic (probability that behavioral signature matches class)": "+ (LOQ ≤ + <5%)", "AX: anxiolytic (probability that behavioral signature matches class)": "++ (5% ≤ ++ <25%)", "CE: cognitive enhancer (probability that behavioral signature matches class)": "+ (LOQ ≤ + <5%)", "DP: anti-depressant (probability that behavioral signature matches class)": "++ (5% ≤ ++ <25%)", "HA: hallucinogen (probability that behavioral signature matches class)": "+ (LOQ ≤ + <5%)", "MS: mood stabilizer (probability that behavioral signature matches class)": "+ (LOQ ≤ + <5%)", "PS: anti-psychotic (probability that behavioral signature matches class)": "+++ (25% ≤ +++ <50%)", "SD: sedative hypnotic (probability that behavioral signature matches class)": "++ (5% ≤ ++ <25%)", "UN: uncharacterized CNS activity (probability that behavioral signature matches class)": "+ (LOQ ≤ + <5%)", "XG: anxiogenic (probability that behavioral signature matches class)": "+ (LOQ ≤ + <5%)"}, {"smiles": "Cc1ccc2c(c1)[C@H](C1CNC1)OCC2", "note": "[Compound I-117, (S)-3-(7-methylisochroman-1-yl)azetidine]", "AD: ADHD (probability that behavioral signature matches class)": "+ (LOQ ≤ + <5%)", "AG: analgesic (probability that behavioral signature matches class)": "+ (LOQ ≤ + <5%)", "AX: anxiolytic (probability that behavioral signature matches class)": "++ (5% ≤ ++ <25%)", "CE: cognitive enhancer (probability that behavioral signature matches class)": "++ (5% ≤ ++ <25%)", "DP: anti-depressant (probability that behavioral signature matches class)": "++ (5% ≤ ++ <25%)", "HA: hallucinogen (probability that behavioral signature matches class)": "+ (LOQ ≤ + <5%)", "MS: mood stabilizer (probability that behavioral signature matches class)": "+ (LOQ ≤ + <5%)", "PS: anti-psychotic (probability that behavioral signature matches class)": "+++ (25% ≤ +++ <50%)", "SD: sedative hypnotic (probability that behavioral signature matches class)": "+ (LOQ ≤ + <5%)", "UN: uncharacterized CNS activity (probability that behavioral signature matches class)": "+ (LOQ ≤ + <5%)", "XG: anxiogenic (probability that behavioral signature matches class)": "+ (LOQ ≤ + <5%)"}, {"smiles": "Fc1ccc2c(c1)CO[C@@H]2[C@@H]1CCCN1", "note": "[Compound I-118, (S)-2-((S)-5-fluoro-1,3-dihydroisobenzofuran-1-yl)pyrrolidine]", "AD: ADHD (probability that behavioral signature matches class)": "+ (LOQ ≤ + <5%)", "AG: analgesic (probability that behavioral signature matches class)": "++ (5% ≤ ++ <25%)", "AX: anxiolytic (probability that behavioral signature matches class)": "+++ (25% ≤ +++ <50%)", "CE: cognitive enhancer (probability that behavioral signature matches class)": "++ (5% ≤ ++ <25%)", "DP: anti-depressant (probability that behavioral signature matches class)": "++ (5% ≤ ++ <25%)", "HA: hallucinogen (probability that behavioral signature matches class)": "+ (LOQ ≤ + <5%)", "MS: mood stabilizer (probability that behavioral signature matches class)": "++ (5% ≤ ++ <25%)", "PS: anti-psychotic (probability that behavioral signature matches class)": "+++ (25% ≤ +++ <50%)", "SD: sedative hypnotic (probability that behavioral signature matches class)": "++ (5% ≤ ++ <25%)", "UN: uncharacterized CNS activity (probability that behavioral signature matches class)": "+ (LOQ ≤ + <5%)", "XG: anxiogenic (probability that behavioral signature matches class)": "+ (LOQ ≤ + <5%)"}, {"smiles": "Fc1ccc2c(c1)CO[C@H]2[C@@H]1CCCN1", "note": "[Compound I-119, (S)-2-((R)-5-fluoro-1,3-dihydroisobenzofuran-1-yl)pyrrolidine]", "AD: ADHD (probability that behavioral signature matches class)": "+ (LOQ ≤ + <5%)", "AG: analgesic (probability that behavioral signature matches class)": "+++ (25% ≤ +++ <50%)", "AX: anxiolytic (probability that behavioral signature matches class)": "++ (5% ≤ ++ <25%)", "CE: cognitive enhancer (probability that behavioral signature matches class)": "++ (5% ≤ ++ <25%)", "DP: anti-depressant (probability that behavioral signature matches class)": "++ (5% ≤ ++ <25%)", "HA: hallucinogen (probability that behavioral signature matches class)": "+ (LOQ ≤ + <5%)", "MS: mood stabilizer (probability that behavioral signature matches class)": "+ (LOQ ≤ + <5%)", "PS: anti-psychotic (probability that behavioral signature matches class)": "+++ (25% ≤ +++ <50%)", "SD: sedative hypnotic (probability that behavioral signature matches class)": "+ (LOQ ≤ + <5%)", "UN: uncharacterized CNS activity (probability that behavioral signature matches class)": "+ (LOQ ≤ + <5%)", "XG: anxiogenic (probability that behavioral signature matches class)": "+ (LOQ ≤ + <5%)"}, {"smiles": "Fc1ccc2c(c1)CO[C@@H]2[C@H]1CCCN1", "note": "[Compound I-120, (R)-2-((S)-5-fluoro-1,3-dihydroisobenzofuran-1-yl)pyrrolidine]", "AD: ADHD (probability that behavioral signature matches class)": "+ (LOQ ≤ + <5%)", "AG: analgesic (probability that behavioral signature matches class)": "++ (5% ≤ ++ <25%)", "AX: anxiolytic (probability that behavioral signature matches class)": "++ (5% ≤ ++ <25%)", "CE: cognitive enhancer (probability that behavioral signature matches class)": "+++ (25% ≤ +++ <50%)", "DP: anti-depressant (probability that behavioral signature matches class)": "++ (5% ≤ ++ <25%)", "HA: hallucinogen (probability that behavioral signature matches class)": "+ (LOQ ≤ + <5%)", "MS: mood stabilizer (probability that behavioral signature matches class)": "++ (5% ≤ ++ <25%)", "PS: anti-psychotic (probability that behavioral signature matches class)": "++ (5% ≤ ++ <25%)", "SD: sedative hypnotic (probability that behavioral signature matches class)": "++ (5% ≤ ++ <25%)", "UN: uncharacterized CNS activity (probability that behavioral signature matches class)": "++ (5% ≤ ++ <25%)", "XG: anxiogenic (probability that behavioral signature matches class)": "+ (LOQ ≤ + <5%)"}, {"smiles": "Fc1ccc2c(c1)CO[C@H]2[C@H]1CCCN1", "note": "[Compound I-121, (R)-2-((R)-5-fluoro-1,3-dihydroisobenzofuran-1-yl)pyrrolidine]", "AD: ADHD (probability that behavioral signature matches class)": "+ (LOQ ≤ + <5%)", "AG: analgesic (probability that behavioral signature matches class)": "+++ (25% ≤ +++ <50%)", "AX: anxiolytic (probability that behavioral signature matches class)": "+++ (25% ≤ +++ <50%)", "CE: cognitive enhancer (probability that behavioral signature matches class)": "++ (5% ≤ ++ <25%)", "DP: anti-depressant (probability that behavioral signature matches class)": "++ (5% ≤ ++ <25%)", "HA: hallucinogen (probability that behavioral signature matches class)": "+ (LOQ ≤ + <5%)", "MS: mood stabilizer (probability that behavioral signature matches class)": "+ (LOQ ≤ + <5%)", "PS: anti-psychotic (probability that behavioral signature matches class)": "++ (5% ≤ ++ <25%)", "SD: sedative hypnotic (probability that behavioral signature matches class)": "++ (5% ≤ ++ <25%)", "UN: uncharacterized CNS activity (probability that behavioral signature matches class)": "++ (5% ≤ ++ <25%)", "XG: anxiogenic (probability that behavioral signature matches class)": "+ (LOQ ≤ + <5%)"}]}]}
